Each block holds one molecule with its values, some of them ahead of it.
Columns and labels:
[1] = biological target: T1, 5-hydroxytryptamine receptor 1A (Rattus norvegicus, UniProt P19327)
T1 sequence (P19327 whole entry): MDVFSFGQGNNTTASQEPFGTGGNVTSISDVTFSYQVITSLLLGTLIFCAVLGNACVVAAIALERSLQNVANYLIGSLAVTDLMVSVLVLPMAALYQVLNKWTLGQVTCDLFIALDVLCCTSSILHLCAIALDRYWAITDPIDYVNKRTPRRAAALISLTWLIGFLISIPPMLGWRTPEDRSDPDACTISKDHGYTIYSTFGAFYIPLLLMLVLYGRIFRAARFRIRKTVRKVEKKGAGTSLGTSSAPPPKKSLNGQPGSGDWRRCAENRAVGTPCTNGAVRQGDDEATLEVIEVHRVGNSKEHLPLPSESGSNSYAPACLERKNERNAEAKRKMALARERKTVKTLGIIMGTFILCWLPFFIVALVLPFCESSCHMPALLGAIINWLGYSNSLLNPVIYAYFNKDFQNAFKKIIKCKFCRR
Description: (§1) In vitro binding affinity for 5-hydroxytryptamine 1A receptor in rat hippocampal membranes by [125I]-labeled agonist displacement.

Rattus norvegicus [2] = assay: Biodistribution was measured in blood of rat by injecting the radiolabeled compound intravenously and the value measured after 60 min; format: ADME, organism-based; settings: in vivo, iv, 1 h
Rattus norvegicus [3] = assay: Biodistribution was measured in rat spleen by injecting the radiolabeled compound intravenously and the value measured after 60 min; format: ADME, organism-based; settings: in vivo, iv, 1 h
Rattus norvegicus [4] = assay: Biodistribution was measured in rat hippocampus by injecting the radiolabeled compound intravenously and the value measured after 2 min; format: ADME, organism-based; settings: in vivo, iv
Rattus norvegicus [5] = assay: Biodistribution was measured in rat skin by injecting the radiolabeled compound intravenously and the value measured after 30 min; format: ADME, organism-based, Zone of skin; settings: in vivo, iv, 0.5 h
Rattus norvegicus [6] = assay: Biodistribution was measured in rat kidney by injecting the radiolabeled compound intravenously and the value measured after 30 min; format: ADME, organism-based; settings: in vivo, iv, 0.5 h
Rattus norvegicus [7] = assay: Biodistribution was measured in rat muscle by injecting the radiolabeled compound intravenously and the value measured after 30 min; format: ADME, organism-based, Muscle tissue; settings: in vivo, iv, 0.5 h
Rattus norvegicus [8] = assay: Biodistribution was measured in rat cerebellum by injecting the radiolabeled compound intravenously and the value measured after 60 min; format: ADME, organism-based; settings: in vivo, iv, 1 h
Rattus norvegicus [9] = assay: Biodistribution was measured in rat brain by injecting the radiolabeled compound intravenously and the value measured after 60 min; format: ADME, organism-based; settings: in vivo, iv, 1 h
Rattus norvegicus [10] = assay: Biodistribution was measured in rat muscle by injecting the radiolabeled compound intravenously and the value measured after 2 min; format: ADME, organism-based, Muscle tissue; settings: in vivo, iv
Rattus norvegicus [11] = assay: Biodistribution was measured in rat thyroid by injecting the radiolabeled compound intravenously and the value measured after 30 min; format: ADME, organism-based, Thyroid gland; settings: in vivo, iv, 0.5 h
[12] = Biodistribution was measured in hippocampus region(HP/CB) by injecting the radiolabeled compound intravenously and the value measured after 30 min; format: ADME, organism-based; settings: in vivo, iv, 0.5 h
Rattus norvegicus [13] = assay: Biodistribution was measured in rat brain by injecting the radiolabeled compound intravenously and the value measured after 30 min; format: ADME, organism-based; settings: in vivo, iv, 0.5 h
Rattus norvegicus [14] = assay: Biodistribution was measured in rat brain by injecting the radiolabeled compound intravenously and the value measured after 2 min; format: ADME, organism-based; settings: in vivo, iv
Rattus norvegicus [15] = assay: Biodistribution was measured in rat lung by injecting the radiolabeled compound intravenously and the value measured after 60 min; format: ADME, organism-based; settings: in vivo, iv, 1 h
Rattus norvegicus [16] = assay: Biodistribution was measured in rat striatum by injecting the radiolabeled compound intravenously and the value measured after 2 min; format: ADME, organism-based; settings: in vivo, iv
Rattus norvegicus [17] = assay: Biodistribution was measured in rat hippocampus by injecting the radiolabeled compound intravenously and the value measured after 30 min; format: ADME, organism-based; settings: in vivo, iv, 0.5 h
Rattus norvegicus [18] = assay: Biodistribution was measured in rat cortex by injecting the radiolabeled compound intravenously and the value measured after 60 min; format: ADME, organism-based; settings: in vivo, iv, 1 h
Rattus norvegicus [19] = assay: Biodistribution was measured in blood of rat by injecting the radiolabeled compound intravenously and the value measured after 30 min; format: ADME, organism-based; settings: in vivo, iv, 0.5 h
Rattus norvegicus [20] = assay: Biodistribution was measured in rat striatum by injecting the radiolabeled compound intravenously and the value measured after 30 min; format: ADME, organism-based; settings: in vivo, iv, 0.5 h
Rattus norvegicus [21] = assay: Biodistribution was measured in rat striatum by injecting the radiolabeled compound intravenously and the value measured after 60 min; format: ADME, organism-based; settings: in vivo, iv, 1 h
Rattus norvegicus [22] = assay: Biodistribution was measured in rat muscle by injecting the radiolabeled compound intravenously and the value measured after 60 min; format: ADME, organism-based, Muscle tissue; settings: in vivo, iv, 1 h
Rattus norvegicus [23] = assay: Biodistribution was measured in rat heart by injecting the radiolabeled compound intravenously and the value measured after 60 min; format: ADME, organism-based; settings: in vivo, iv, 1 h
Rattus norvegicus [24] = assay: Biodistribution was measured in rat spleen by injecting the radiolabeled compound intravenously and the value measured after 30 min; format: ADME, organism-based; settings: in vivo, iv, 0.5 h
Rattus norvegicus [25] = assay: Biodistribution was measured in rat liver by injecting the radiolabeled compound intravenously and the value measured after 30 min; format: ADME, organism-based; settings: in vivo, iv, 0.5 h
[26] = Biodistribution was measured in hippocampus region(HP/CB) by injecting the radiolabeled compound intravenously and the value measured after 60 min; format: ADME, organism-based; settings: in vivo, iv, 1 h
Rattus norvegicus [27] = assay: Biodistribution was measured in rat liver by injecting the radiolabeled compound intravenously and the value measured after 60 min; format: ADME, organism-based; settings: in vivo, iv, 1 h
Rattus norvegicus [28] = assay: Biodistribution was measured in rat lung by injecting the radiolabeled compound intravenously and the value measured after 2 min; format: ADME, organism-based; settings: in vivo, iv
Rattus norvegicus [29] = assay: Biodistribution was measured in rat heart by injecting the radiolabeled compound intravenously and the value measured after 30 min; format: ADME, organism-based; settings: in vivo, iv, 0.5 h
Rattus norvegicus [30] = assay: Biodistribution was measured in rat kidney by injecting the radiolabeled compound intravenously and the value measured after 60 min; format: ADME, organism-based; settings: in vivo, iv, 1 h
[31] = biological target: T1, 5-hydroxytryptamine receptor 1A; remark: listed apart in the source
Description: as §1

Rattus norvegicus [32] = assay: Biodistribution was measured in rat cerebellum by injecting the radiolabeled compound intravenously and the value measured after 30 min; format: ADME, organism-based; settings: in vivo, iv, 0.5 h
Rattus norvegicus [33] = assay: Biodistribution was measured in rat heart by injecting the radiolabeled compound intravenously and the value measured after 2 min; format: ADME, organism-based; settings: in vivo, iv
Rattus norvegicus [34] = assay: Biodistribution was measured in rat spleen by injecting the radiolabeled compound intravenously and the value measured after 2 min; format: ADME, organism-based; settings: in vivo, iv
Rattus norvegicus [35] = assay: Biodistribution was measured in rat skin by injecting the radiolabeled compound intravenously and the value measured after 60 min; format: ADME, organism-based, Zone of skin; settings: in vivo, iv, 1 h
Rattus norvegicus [36] = assay: Biodistribution was measured in rat cortex by injecting the radiolabeled compound intravenously and the value measured after 30 min; format: ADME, organism-based; settings: in vivo, iv, 0.5 h
Rattus norvegicus [37] = assay: Biodistribution was measured in rat hippocampus by injecting the radiolabeled compound intravenously and the value measured after 60 min; format: ADME, organism-based; settings: in vivo, iv, 1 h
Rattus norvegicus [38] = assay: Biodistribution was measured in rat thyroid by injecting the radiolabeled compound intravenously and the value measured after 60 min; format: ADME, organism-based, Thyroid gland; settings: in vivo, iv, 1 h
Rattus norvegicus [39] = assay: Biodistribution was measured in rat cortex by injecting the radiolabeled compound intravenously and the value measured after 2 min; format: ADME, organism-based; settings: in vivo, iv
Rattus norvegicus [40] = assay: Biodistribution was measured in rat thyroid by injecting the radiolabeled compound intravenously and the value measured after 2 min; format: ADME, organism-based, Thyroid gland; settings: in vivo, iv
Rattus norvegicus [41] = assay: Biodistribution was measured in blood of rat by injecting the radiolabeled compound intravenously and the value measured after 2 min; format: ADME, organism-based; settings: in vivo, iv
[42] = Biodistribution was measured in hippocampus region(HP/CB) by injecting the radiolabeled compound intravenously and the value measured after 2 min; format: ADME, organism-based; settings: in vivo, iv
Rattus norvegicus [43] = assay: Biodistribution was measured in rat cerebellum by injecting the radiolabeled compound intravenously and the value measured after 2 min; format: ADME, organism-based; settings: in vivo, iv
Rattus norvegicus [44] = assay: Biodistribution was measured in rat liver by injecting the radiolabeled compound intravenously and the value measured after 2 min; format: ADME, organism-based; settings: in vivo, iv
Rattus norvegicus [45] = assay: Biodistribution was measured in rat lung by injecting the radiolabeled compound intravenously and the value measured after 30 min; format: ADME, organism-based; settings: in vivo, iv, 0.5 h
Rattus norvegicus [46] = assay: Biodistribution was measured in rat kidney by injecting the radiolabeled compound intravenously and the value measured after 2 min; format: ADME, organism-based; settings: in vivo, iv

Ki [1]: 8.9 nM
SMILES: COc1ccccc1N1CCN(CCn2c(=O)c3ccccc3c3ccccc32)CC1

Ki [1]: 14.9 nM
SMILES: COc1ccccc1N1CCN(CCN2Cc3ccccc3C2=O)CC1

Biodistribution (Rattus norvegicus [2]): 2.08 % dose organ-1
Biodistribution (Rattus norvegicus [3]): 0.15 % dose organ-1
Biodistribution (Rattus norvegicus [4]): 0.47 % dose organ-1
Biodistribution (Rattus norvegicus [5]): 7.41 % dose organ-1
Biodistribution (Rattus norvegicus [6]): 2.2 % dose organ-1
Biodistribution (Rattus norvegicus [7]): 19.08 % dose organ-1
Biodistribution (Rattus norvegicus [8]): 0.051 % dose organ-1
Biodistribution (Rattus norvegicus [9]): 0.08 % dose organ-1
Biodistribution (Rattus norvegicus [10]): 14.07 % dose organ-1
Biodistribution (Rattus norvegicus [11]): 0.04 % dose organ-1
Biodistribution [12]: 1.08 % dose organ-1
Biodistribution (Rattus norvegicus [13]): 0.21 % dose organ-1
Biodistribution (Rattus norvegicus [14]): 0.71 % dose organ-1
Biodistribution (Rattus norvegicus [15]): 0.42 % dose organ-1
Biodistribution (Rattus norvegicus [16]): 0.55 % dose organ-1
Biodistribution (Rattus norvegicus [17]): 0.13 % dose organ-1
Biodistribution (Rattus norvegicus [18]): 0.048 % dose organ-1
Biodistribution (Rattus norvegicus [19]): 3.45 % dose organ-1
Biodistribution (Rattus norvegicus [20]): 0.15 % dose organ-1
Biodistribution (Rattus norvegicus [21]): 0.053 % dose organ-1
Biodistribution (Rattus norvegicus [22]): 9.05 % dose organ-1
Biodistribution (Rattus norvegicus [23]): 0.18 % dose organ-1
Biodistribution (Rattus norvegicus [24]): 0.22 % dose organ-1
Biodistribution (Rattus norvegicus [25]): 23.02 % dose organ-1
Biodistribution [26]: 0.88 % dose organ-1
Biodistribution (Rattus norvegicus [27]): 17.95 % dose organ-1
Biodistribution (Rattus norvegicus [28]): 1.54 % dose organ-1
Biodistribution (Rattus norvegicus [29]): 0.33 % dose organ-1
Ki [1]: 2.54 nM
Biodistribution (Rattus norvegicus [30]): 1 % dose organ-1
Ki [31]: 2.54 nM
Biodistribution (Rattus norvegicus [32]): 0.12 % dose organ-1
Biodistribution (Rattus norvegicus [33]): 0.77 % dose organ-1
Biodistribution (Rattus norvegicus [34]): 0.27 % dose organ-1
Biodistribution (Rattus norvegicus [35]): 6.93 % dose organ-1
Biodistribution (Rattus norvegicus [36]): 0.14 % dose organ-1
Biodistribution (Rattus norvegicus [37]): 0.045 % dose organ-1
Biodistribution (Rattus norvegicus [38]): 0.03 % dose organ-1
Biodistribution (Rattus norvegicus [39]): 0.57 % dose organ-1
Biodistribution (Rattus norvegicus [40]): 0.06 % dose organ-1
Biodistribution (Rattus norvegicus [41]): 5.6 % dose organ-1
Biodistribution [42]: 1.02 % dose organ-1
Biodistribution (Rattus norvegicus [43]): 0.46 % dose organ-1
Biodistribution (Rattus norvegicus [44]): 19.49 % dose organ-1
Biodistribution (Rattus norvegicus [45]): 0.75 % dose organ-1
Biodistribution (Rattus norvegicus [46]): 3.02 % dose organ-1
SMILES: COc1ccccc1N1CCN(CCN2C(=O)CCC2c2ccc(I)cc2)CC1 (stereo not drawn)
